Measurements from ChEMBL document CHEMBL1201862, “PubChem BioAssay data set” (2004).
Where a name gives a salt, the structure may show the parent alone.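 Each compound was tested at five concentrations against cells in 96-well plates for 48 hours. GI50 is the concentration that inhibits growth by half.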 Activity calls are given as the source filed them. Cut-off read from the data, not from the text of the source: active = GI50 up to about 1.1 µM and inactive = higher.

Key:
Assay in all cases: NCI tumour cell line growth inhibition, 48 h
MOLT-4 = test system: MOLT-4
CCRF-CEM = test system: CCRF-CEM
SNB-75 = test system: SNB-75
A549 = test system: A549
SW-620 = test system: SW-620
HCT-15 = test system: HCT-15
SNB-19 = test system: SNB-19
RXF 393 = test system: RXF 393
UACC-62 = test system: UACC-62
SF-268 = test system: SF-268
EKVX = test system: EKVX
UACC-257 = test system: UACC-257
TK-10 = test system: TK-10
HOP-62 = test system: HOP-62
U-251 = test system: U-251
A498 = test system: A498
MDA-MB-435 = test system: MDA-MB-435
SK-MEL-28 = test system: SK-MEL-28
SF-295 = test system: SF-295
KM12 = test system: KM12
OVCAR-8 = test system: OVCAR-8
HT-29 = test system: HT-29
SF-539 = test system: SF-539
OVCAR-3 = test system: OVCAR-3
NCI-H23 = test system: NCI-H23
SN12C = test system: SN12C
ACHN = test system: ACHN
DU-145 = test system: DU-145
BT-549 = test system: BT-549
K562 = test system: K562
Hs-578T = test system: Hs-578T
T47D = test system: T47D
NCI-H226 = test system: NCI-H226
PC-3 = test system: PC-3
HCT-116 = test system: HCT-116
M14 = test system: M14
IGROV-1 = test system: IGROV-1
SK-MEL-5 = test system: SK-MEL-5
Malme-3M = test system: Malme-3M
MCF7 = test system: MCF7
MDA-N = test system: MDA-N
UO-31 = test system: UO-31
HOP-92 = test system: HOP-92
786-0 = test system: 786-0
NCI-H460 = test system: NCI-H460
LOX IMVI = test system: LOX IMVI
SK-OV-3 = test system: SK-OV-3
OVCAR-5 = test system: OVCAR-5
MDA-MB-231 = test system: MDA-MB-231
SK-MEL-2 = test system: SK-MEL-2
COLO 205 = test system: COLO 205
HCC 2998 = test system: HCC 2998
SR = test system: SR
OVCAR-4 = test system: OVCAR-4
NCI/ADR-RES = test system: NCI/ADR-RES
HL-60 = test system: HL-60
RPMI-8226 = test system: RPMI-8226
NCI-H522 = test system: NCI-H522
CAKI-1 = test system: CAKI-1

Measured: GI50

CCCCCCOc1ccc(NC2=C(Cl)C(=O)c3ncccc3C2=O)cc1
active: MCF7 1.11 µM
inactive: MOLT-4 2.24 µM | CCRF-CEM 1.21 µM | SNB-75 1.99 µM | A549 2.49 µM | SW-620 1.83 µM | SNB-19 1.97 µM | RXF 393 1.84 µM | UACC-62 1.44 µM | SF-268 1.97 µM | EKVX > 10 µM | UACC-257 1.9 µM | TK-10 4.31 µM | HOP-62 1.92 µM | U-251 1.61 µM | A498 > 10 µM | MDA-MB-435 1.7 µM | SK-MEL-28 1.64 µM | SF-295 1.96 µM | KM12 1.33 µM | OVCAR-8 3.43 µM | HT-29 3.87 µM | SF-539 1.72 µM | OVCAR-3 2.1 µM | NCI-H23 1.97 µM | SN12C 1.67 µM | ACHN > 10 µM | DU-145 1.5 µM | BT-549 1.76 µM | K562 2.59 µM | Hs-578T 1.79 µM | T47D 1.68 µM | NCI-H226 5.61 µM | PC-3 1.51 µM | HCT-116 1.16 µM | M14 1.88 µM | IGROV-1 2.77 µM | SK-MEL-5 1.54 µM | Malme-3M 1.91 µM | MDA-N 1.52 µM | UO-31 1.39 µM | HOP-92 > 10 µM | 786-0 2.22 µM | NCI-H460 1.55 µM | LOX IMVI 1.61 µM | SK-OV-3 > 10 µM | OVCAR-5 7.35 µM
2.02 µM: HCT-15

CC/C(=C(\c1ccccc1)c1ccc(OCCN(C)C)cc1)c1ccccc1 [TAMOXIFEN CITRATE]
inactive: MOLT-4 3.4 µM | CCRF-CEM 4.75 µM | A549 5.79 µM | RXF 393 3.87 µM | UACC-62 5.26 µM | MDA-MB-231 4.97 µM | EKVX 7.03 µM | UACC-257 4.81 µM | TK-10 5.18 µM | HOP-62 5.12 µM | A498 4.38 µM | SK-MEL-2 5.45 µM | COLO 205 4.1 µM | OVCAR-8 6.32 µM | HT-29 3.44 µM | OVCAR-3 5 µM | NCI-H23 5.93 µM | ACHN 6.1 µM | BT-549 6.07 µM | K562 3.3 µM | HCC 2998 3.81 µM | Hs-578T 5.58 µM | SR 4.86 µM | T47D 3.05 µM | NCI-H226 6.34 µM | PC-3 4.18 µM | HCT-116 4.8 µM | M14 4.42 µM | OVCAR-4 5.6 µM | IGROV-1 5.75 µM | NCI/ADR-RES 5.28 µM | SK-MEL-5 4.17 µM | MCF7 1.65 µM | MDA-N 4.68 µM | UO-31 4.14 µM | HOP-92 4.57 µM | 786-0 4.43 µM | LOX IMVI 3.99 µM
4.67 µM: HCT-15

C(=N\c1ccc(-c2nc3ccccc3s2)cc1)/c1cccs1
40.6 µM: HCT-15
active: CCRF-CEM 0.617 µM | HL-60 < 0.01 µM
inactive: MOLT-4 27 µM | SNB-75 29.9 µM | A549 57.7 µM | SW-620 75.3 µM | SNB-19 88.3 µM | RXF 393 27.5 µM | UACC-62 42 µM | SF-268 34.8 µM | EKVX 45.2 µM | UACC-257 38.2 µM | TK-10 30.5 µM | HOP-62 30.3 µM | U-251 49.2 µM | A498 25.1 µM | SK-MEL-2 38.2 µM | MDA-MB-435 41.9 µM | SK-MEL-28 > 100 µM | SF-295 23.2 µM | RPMI-8226 33.4 µM | COLO 205 42.1 µM | KM12 40.1 µM | OVCAR-8 49.2 µM | HT-29 52.4 µM | SF-539 59.3 µM | OVCAR-3 42.5 µM | NCI-H522 32.1 µM | NCI-H23 54.3 µM | SN12C 40.6 µM | ACHN 35.8 µM | CAKI-1 38.5 µM | DU-145 69.8 µM | BT-549 56.2 µM | K562 34.8 µM | HCC 2998 34 µM | Hs-578T 41.7 µM | SR 39.6 µM | T47D 22.8 µM | NCI-H226 54.2 µM | PC-3 38.1 µM | HCT-116 52.1 µM | M14 69 µM | OVCAR-4 39.9 µM | IGROV-1 49.8 µM | NCI/ADR-RES 43.3 µM | SK-MEL-5 30.4 µM | Malme-3M 68.5 µM | MDA-N 39.4 µM | UO-31 43.9 µM | HOP-92 28.4 µM | 786-0 48.2 µM | NCI-H460 36.1 µM | LOX IMVI 46.1 µM | SK-OV-3 81.8 µM | OVCAR-5 89.1 µM

C[C@H](CS)C(=O)N1c2ccccc2C[C@H]1C(=O)O
> 100 µM: HCT-15
inactive: MOLT-4 > 100 µM | CCRF-CEM > 100 µM | SNB-75 > 100 µM | A549 > 100 µM | SW-620 > 100 µM | SNB-19 > 100 µM | UACC-62 > 100 µM | MDA-MB-231 > 100 µM | HL-60 > 100 µM | SF-268 > 100 µM | EKVX > 100 µM | UACC-257 > 100 µM | TK-10 > 100 µM | HOP-62 > 100 µM | U-251 > 100 µM | A498 > 100 µM | SK-MEL-2 > 100 µM | SK-MEL-28 > 100 µM | SF-295 > 100 µM | COLO 205 > 100 µM | KM12 > 100 µM | OVCAR-8 > 100 µM | HT-29 97.1 µM | SF-539 > 100 µM | OVCAR-3 > 100 µM | NCI-H522 > 100 µM | NCI-H23 > 100 µM | SN12C > 100 µM | ACHN > 100 µM | CAKI-1 > 100 µM | DU-145 > 100 µM | BT-549 > 100 µM | K562 > 100 µM | HCC 2998 37.5 µM | Hs-578T > 100 µM | SR > 100 µM | T47D 56 µM | NCI-H226 > 100 µM | PC-3 > 100 µM | HCT-116 > 100 µM | OVCAR-4 > 100 µM | IGROV-1 > 100 µM | NCI/ADR-RES > 100 µM | SK-MEL-5 > 100 µM | MCF7 > 100 µM | MDA-N > 100 µM | UO-31 > 100 µM | 786-0 > 100 µM | NCI-H460 > 100 µM | SK-OV-3 > 100 µM | OVCAR-5 > 100 µM

C=CCc1cccc(C(=O)/C=C(O)/C=C/c2ccccc2Cl)c1O
active: IGROV-1 0.352 µM
8.39 µM: HCT-15
inactive: MOLT-4 3.96 µM | CCRF-CEM 6.82 µM | SNB-75 67.3 µM | A549 8.91 µM | SW-620 8.43 µM | SNB-19 21 µM | RXF 393 19.5 µM | UACC-62 13.4 µM | MDA-MB-231 36.7 µM | SF-268 20.5 µM | EKVX 29.5 µM | UACC-257 13.8 µM | TK-10 42.7 µM | HOP-62 16.6 µM | U-251 5.66 µM | A498 21.2 µM | SK-MEL-2 10.4 µM | MDA-MB-435 12.4 µM | SK-MEL-28 10.5 µM | SF-295 9.27 µM | RPMI-8226 6.67 µM | COLO 205 25.1 µM | KM12 17.2 µM | OVCAR-8 6.04 µM | HT-29 9.93 µM | SF-539 7.43 µM | OVCAR-3 16.6 µM | NCI-H522 11.2 µM | NCI-H23 6.12 µM | SN12C 25.6 µM | ACHN 23.3 µM | CAKI-1 42.6 µM | DU-145 15.1 µM | BT-549 37.4 µM | K562 2.11 µM | HCC 2998 33.9 µM | SR 4.74 µM | T47D 9.48 µM | NCI-H226 18.8 µM | PC-3 8.38 µM | HCT-116 7.29 µM | M14 24.5 µM | NCI/ADR-RES 11.5 µM | SK-MEL-5 7.16 µM | MCF7 13.2 µM | MDA-N 27.7 µM | UO-31 9.18 µM | HOP-92 25.6 µM | 786-0 10.4 µM | NCI-H460 24.9 µM | LOX IMVI 7.01 µM | SK-OV-3 23.6 µM | OVCAR-5 33.4 µM
